Patent US9233965B2, “3,4-dihydropyrrolo[1,2-A]pyrazine-2,8(1H)-dicarboxamide derivatives, preparation thereof and therapeutic use thereof for diseases involving casein kinase 1 epsilon and/or casein kinase 1 delta” (SANOFI, priority 2010, dated 2016)

Molecular target: casein kinase 1 epsilon (CK1 epsilon) (Homo sapiens (Human), UniProt P49674)
Test: Test A: inhibitory activity on CK1 epsilon, casein phosphorylation assay on ATP-33P filter plate
Format: biochemical
Conditions: IC50 values or IC50 ranges (result of several experiments), ATP 10 μM final
Method: The capacity of the compounds of the invention to inhibit the phosphorylation of casein by casein kinase 1 epsilon and/or delta may be evaluated according to the procedures described in document US 2005/0 131 012.
Test A: Inhibitory Activity on CK1 Epsilon Measured by Assay on an ATP-^33P Filter Plate
The effect of the compounds on inhibition of the phosphorylation of casein by the enzyme casein kinase 1 epsilon (CK1 epsilon) is measured, using a casein assay via filtration of ATP-^33P in vitro.
Casein kinase 1 epsilon (0.58 mg/ml) is obtained via fermentation and purification processes performed according to methods that are well known to those skilled in the art, or may also be obtained from Invitrogen Corporation™ (human CK1 epsilon).
The compounds are tested at five different concentrations so as to generate IC50 values, i.e. the concentration at which a compound is capable of inhibiting the enzymatic activity by 50%, or alternatively the percentage of inhibition at a concentration of 10 micromolar.
“U”-bottomed Falcon plates are prepared by placing 5 μL of solutions of the compounds according to the invention at concentrations of 10, 1, 0.1, 0.01 or 0.001 μM in different wells. The solutions of the compounds according to the invention at these various concentrations are prepared by diluting in a test buffer (Tris 50 mM pH 7.5, MgCl2 […], DTT 2 mM and EGTA 1 mM) a stock solution in DMSO at a concentration of 10 mM. Next, 5 μL of dephosphorylated casein are added to a final concentration of 0.2 μg/μL, 20 μL of CK1 epsilon to a final concentration of 3 ng/μL, and 20 μL of ATP-^33P to a final concentration of 0.02 μCi/μL mixed with cold ATP (10 μM final—approximately 2×10^6 CPM per well). The final total test volume per well is equal to 50 μL.
The “U”-bottomed Falcon® test plate mentioned above is vortexed, and then incubated at room temperature for 2 hours. After 2 hours the reaction is stopped by adding an ice-cold solution of 65 μL of cold ATP (2 mM) prepared in test buffer.
100 μL of the reaction mixture are then transferred from the “U”-bottomed Falcon® plate into Millipore® MAPH filter plates, preimpregnated with 25 μL of ice-cold 100% TCA.
The Millipore MAPH filter plates are agitated gently and are left to stand at room temperature for at least 30 minutes to precipitate the proteins.
After 30 minutes, the filter plates are sequentially washed and filtered with 2×150 μL of 20% TCA, 2×150 μL of 10% TCA and 2×150 μL of 5% TCA (6 washes in total per plate/900 μL per well).
The plates are left to dry overnight at room temperature. Next, 40 μL of Microscint-20 Packard® scintillation liquid are added per well and the plates are closed in a leaktight manner. The radiation emitted by each well is then measured for 2 minutes in a TopCount NXT Packard® scintillation counter, in which the values of CPM/well are measured.
The percentage inhibition of the capacity of the enzyme to phosphorylate the substrate (casein) is determined for each concentration of test compound. These inhibition data expressed as percentages are used to calculate the IC50 value for each compound compared with the controls.
The kinetic studies determined the KM value for ATP as being 21 μM in this test system.
Table 2 below gives the IC50 values or the IC50 inhibition ranges (result of several experiments) for the phosphorylation of Casein Kinase 1 Epsilon for a number of compounds according to the invention.

Chain of casein kinase 1 epsilon (CK1 epsilon) (P49674 whole entry): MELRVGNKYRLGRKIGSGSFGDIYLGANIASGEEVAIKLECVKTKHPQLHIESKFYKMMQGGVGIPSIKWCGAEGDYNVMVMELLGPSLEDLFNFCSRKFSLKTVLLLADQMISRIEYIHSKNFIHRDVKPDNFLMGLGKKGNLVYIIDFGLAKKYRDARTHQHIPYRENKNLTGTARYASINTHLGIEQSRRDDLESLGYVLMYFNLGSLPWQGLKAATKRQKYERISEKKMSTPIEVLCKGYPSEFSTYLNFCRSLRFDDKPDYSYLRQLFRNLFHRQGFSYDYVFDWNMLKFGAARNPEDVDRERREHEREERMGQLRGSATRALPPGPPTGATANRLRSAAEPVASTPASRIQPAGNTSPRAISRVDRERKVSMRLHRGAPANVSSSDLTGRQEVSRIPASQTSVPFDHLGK

Compound | IC50 [nM]
CC(C)(C)NC(=O)N1CCn2c(c(C(N)=O)c(-c3ccc(NS(C)(=O)=O)cc3)c2C2CC2)C1 [Compound 29, N^2-tert-butyl-6-cyclo-propyl-7-{4-[(methylsulfonyl)amino]phenyl}-3,4-dihydropyrrolo[1,2-a]pyrazine-2,8(1H)-dicarboxamide] | 532
CC(C)(C)NC(=O)N1CCn2c(c(C(N)=O)c(-c3ccc(N4CCOCC4)cc3)c2C2CC2)C1 [Compound 30, N^2-tert-butyl-6-cyclo-propyl-7-[4-(morpholin-4-yl)phenyl]-3,4-dihydropyrrolo[1,2-a]pyrazine-2,8(1H)-dicarboxamide] | 331
CC(C)(C)NC(=O)N1CCn2c(c(C(N)=O)c(-c3cccc(-n4cccn4)c3)c2C2CC2)C1 [Compound 27, N^2-tert-butyl-6-cyclo-propyl-7-[3-(1H-pyrazol-1-yl)phenyl]-3,4-dihydropyrrolo[1,2-a]pyrazine-2,8(1H)-dicarboxamide] | 23
CC(C)(C)NC(=O)N1CCn2c(c(C(N)=O)c(-c3ccc(-n4cccn4)cc3)c2C2CC2)C1 [Compound 31, N^2-tert-butyl-6-cyclo-propyl-7-[4-(1H-pyrazol-1-yl)phenyl]-3,4-dihydropyrrolo[1,2-a]pyrazine-2,8(1H)-dicarboxamide] | 5 to 29
COc1ccc(-c2c(C(N)=O)c3n(c2C2CC2)CCN(C(=O)NC(C)C)C3)cc1 [Compound 8, 6-cyclo-propyl-7-(4-methoxyphenyl)-N^2-(iso-propyl)-3,4-dihydropyrrolo[1,2-a]pyrazine-2,8(1H)-dicarboxamide] | 221 to 273
Cc1ccc(-c2c(C(N)=O)c3n(c2C2CC2)CCN(C(=O)NC(C)(C)C)C3)cc1 [Compound 12, N^2-tert-butyl-6-cyclo-propyl-7-(4-methylphenyl)-3,4-dihydropyrrolo[1,2-a]pyrazine-2,8(1H)-dicarboxamide] | 12
CON(C)C(=O)c1ccc(-c2c(C(N)=O)c3n(c2C2CC2)CCN(C(=O)NC(C)(C)C)C3)cc1 [Compound 20, N^2-tert-butyl-6-cyclo-propyl-7-{4-[methoxy(methyl)carbamoyl]phenyl}-3,4-dihydropyrrolo[1,2-a]pyrazine-2,8(1H)-dicarboxamide] | 620
CCCCOc1ccc(-c2c(C(N)=O)c3n(c2C2CC2)CCN(C(=O)NC(C)(C)C)C3)cc1 [Compound 38, 7-(4-butoxyphenyl)-N^2-tert-butyl-6-cyclo-propyl-3,4-dihydropyrrolo[1,2-a]pyrazine-2,8(1H)-dicarboxamide] | 152
CC(C)(C)NC(=O)N1CCn2c(c(C(N)=O)c(-c3ccc(C(=O)N4CCCC4)cc3)c2C2CC2)C1 [Compound 19, N^2-tert-butyl-6-cyclo-propyl-7-[4-(pyrrolidin-1-ylcarbonyl)phenyl]-3,4-dihydropyrrolo[1,2-a]pyrazine-2,8(1H)-dicarboxamide] | 587
CC(C)(C)NC(=O)N1CCn2c(c(C(N)=O)c(-c3cccc(C#N)c3)c2C2CC2)C1 [Compound 21, N^2-tert-butyl-7-(3-cyanophenyl)-6-cyclo-propyl-3,4-dihydropyrrolo[1,2-a]pyrazine-2,8(1H)-dicarboxamide] | 26 to 46
CC(C)(C)NC(=O)N1CCn2c(c(C(N)=O)c(-c3ccc(C(=O)NC4CC4)cc3)c2C2CC2)C1 [Compound 18, N^2-tert-butyl-6-cyclo-propyl-7-[4-(cyclo-propylcarbamoyl)phenyl]-3,4-dihydropyrrolo[1,2-a]pyrazine-2,8(1H)-dicarboxamide] | 963
CC(C)(C)NC(=O)N1CCn2c(c(C(N)=O)c(-c3cccc(OCC4CC4)c3)c2C2CC2)C1 [Compound 33, N^2-tert-butyl-6-cyclo-propyl-7-[3-(cyclo-propylmethoxy)phenyl]-3,4-dihydropyrrolo[1,2-a]pyrazine-2,8(1H)-dicarboxamide] | 847

The remaining lines, values ahead:

IC50 [nM] | Compound
42 | CC(C)(C)NC(=O)N1CCn2c(c(C(N)=O)c(-c3ccc(OCc4ccc(F)cc4)cc3)c2C2CC2)C1 [Compound 41, N^2-tert-butyl-6-cyclo-propyl-7-{4-[(4-fluorobenzyl)oxy]phenyl}-3,4-dihydropyrrolo[1,2-a]pyrazine-2,8(1H)-dicarboxamide]
1 to 4 | COc1cccc(-c2c(C(N)=O)c3n(c2Cl)CCN(C(=O)NC(C)(C)C)C3)c1 [Compound 62, tert-butyl-6-chloro-7-(3-methoxyphenyl)-3,4-dihydropyrrolo[1,2-a]pyrazine-2,8(1H)-dicarboxamide]
24 | CC(C)(C)NC(=O)N1CCn2c(c(C(N)=O)c(-c3ccc(OCC#N)cc3)c2C2CC2)C1 [Compound 43, N^2-tert-butyl-7-[4-(cyanomethoxy)phenyl]-6-cyclo-propyl-3,4-dihydropyrrolo[1,2-a]pyrazine-2,8(1H)-dicarboxamide]
12 | CC(C)(C)NC(=O)N1CCn2c(c(C(N)=O)c(-c3ccccc3F)c2C2CC2)C1 [Compound 45, N^2-tert-butyl-6-cyclo-propyl-7-(2-fluorophenyl)-3,4-dihydropyrrolo[1,2-a]pyrazine-2,8(1H)-dicarboxamide]
< 1 | CON=C1CCC(NC(=O)N2CCn3c(Cl)c(-c4cccc(F)c4)c(C(N)=O)c3C2)CC1 (stereo not drawn) [Compound 86, trans-6-chloro-7-(3-fluorophenyl)-N^2-(4-methoxyimino-cyclohexyl)-3,4-dihydropyrrolo[1,2-a]pyrazine-2,8(1H)-dicarboxamide]
62 | CC(C)(C)NC(=O)N1CCn2c(c(C(N)=O)c(-c3ccc(OCC4CC4)cc3)c2C2CC2)C1 [Compound 37, N^2-tert-butyl-6-cyclo-propyl-7-[4-(cyclo-propylmethoxy)phenyl]-3,4-dihydropyrrolo[1,2-a]pyrazine-2,8(1H)-dicarboxamide]
8 to 13 | CC(C)CNC(=O)N1CCn2c(Cl)c(-c3ccccc3)c(C(N)=O)c2C1 [Compound 59, 6-chloro-N^2-iso-butyl-7-phenyl-3,4-dihydropyrrolo[1,2-a]pyrazine-2,8(1H)-dicarboxamide]
17 to 28 | NC(=O)c1c(-c2ccccc2)c(C2CC2)n2c1CN(C(=O)NC1CCCCC1)CC2 [Compound 49, N^2-cyclo-hexyl-6-cyclo-propyl-7-phenyl-3,4-dihydropyrrolo[1,2-a]pyrazine-2,8(1H)-dicarboxamide]
3 to 5 | NC(=O)c1c(-c2ccccc2)c(Cl)n2c1CN(C(=O)NC1CC3CCC1C3)CC2 (stereo not shown) [Compound 88, N^2-(bicyclo[2.2.1]hept-2-yl)-6-chloro-7-phenyl-3,4-dihydropyrrolo[1,2-a]pyrazine-2,8(1H)-dicarboxamide]
< 1 | CC(C)(C)ON=C1CCC(NC(=O)N2CCn3c(Cl)c(-c4cccc(F)c4)c(C(N)=O)c3C2)CC1 (stereo not drawn) [Compound 87, trans-6-chloro-7-(3-fluorophenyl)-N^2-(4-tert-butyloxyimino-cyclohexyl)-3,4-dihydropyrrolo[1,2-a]pyrazine-2,8(1H)-dicarboxamide]
45 | CC(C)(C)CC(C)(C)NC(=O)N1CCn2c(c(C(N)=O)c(-c3ccccc3)c2C2CC2)C1 [Compound 52, 6-cyclo-propyl-7-phenyl-N^2-(2,4,4-trimethylpentan-2-yl)-3,4-dihydropyrrolo[1,2-a]pyrazine-2,8(1H)-dicarboxamide]
1 to 17 | CC(C)(C)CCNC(=O)N1CCn2c(Cl)c(-c3ccccc3)c(C(N)=O)c2C1 [Compound 72, 6-chloro-N^2-(3,3-dimethylbutyl)-7-phenyl-3,4-dihydropyrrolo[1,2-a]pyrazine-2,8(1H)-dicarboxamide]
7 to 14 | NC(=O)c1c(-c2cccc(F)c2)c(Cl)n2c1CN(C(=O)NC1CCS(=O)(=O)CC1)CC2 [Compound 103, 6-chloro-N^2-(1,1-dioxydotetrahydro-2H-thiopyran-4-yl)-7-(3-fluorophenyl)-3,4-dihydropyrrolo[1,2-a]pyrazine-2,8(1H)-dicarboxamide]
